Source: PubChem BioAssay AID1963431 (Molecular Pharmacology Branch, DTP, NCI, 2024)
Where “and” joins values, the source holds several entries; their conditions need not be identical. Equal values may be shown once.

Test system: Rh18 complex spheroid viability, percent test/control
Assay: Anticancer human tumor Rh18 cell line growth inhibition [Asc];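 note: spheroids exposed to compound for 7 days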;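 for viability, T/C: 100% = DMSO vehicle control wells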
Conditions: for viability, T/C: stronger effect = lower value
Procedure, shortened: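 Concentration series start at each agent's clinical Cmax, or at 10 microM when none is established, and drop in half-log steps; agents are applied alone or together to complex spheroids built with HUVEC and hMSC.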

[1] = curve of first compound, second compound 0.03 µM
[2] = curve of first compound, second compound 0.0949 µM
[3] = curve of first compound, second compound 0.3 µM
[4] = curve of first compound, second compound 0.949 µM
[5] = curve of first compound, second compound 3 µM
[6] = second compound 0.03 µM, first compound 0.00316 µM
[7] = second compound 0.03 µM, first compound 0.01 µM
[8] = second compound 0.03 µM, first compound 0.0316 µM
[9] = second compound 0.03 µM, first compound 0.1 µM
[10] = second compound 0.03 µM, first compound 0.316 µM
[11] = second compound 0.03 µM, first compound 1 µM
[12] = second compound 0.0949 µM, first compound 0.00316 µM
[13] = second compound 0.0949 µM, first compound 0.01 µM
[14] = second compound 0.0949 µM, first compound 0.0316 µM
[15] = second compound 0.0949 µM, first compound 0.1 µM
[16] = second compound 0.0949 µM, first compound 0.316 µM
[17] = second compound 0.0949 µM, first compound 1 µM
[18] = second compound 0.3 µM, first compound 0.00316 µM
[19] = second compound 0.3 µM, first compound 0.01 µM
[20] = second compound 0.3 µM, first compound 0.0316 µM
[21] = second compound 0.3 µM, first compound 0.1 µM
[22] = second compound 0.3 µM, first compound 0.316 µM
[23] = second compound 0.3 µM, first compound 1 µM
[24] = second compound 0.949 µM, first compound 0.00316 µM
[25] = second compound 0.949 µM, first compound 0.01 µM
[26] = second compound 0.949 µM, first compound 0.0316 µM
[27] = second compound 0.949 µM, first compound 0.1 µM
[28] = second compound 0.949 µM, first compound 0.316 µM
[29] = second compound 0.949 µM, first compound 1 µM
[30] = second compound 3 µM, first compound 0.00316 µM
[31] = second compound 3 µM, first compound 0.01 µM
[32] = second compound 3 µM, first compound 0.0316 µM
[33] = second compound 3 µM, first compound 0.1 µM
[34] = second compound 3 µM, first compound 0.316 µM
[35] = second compound 3 µM, first compound 1 µM

## COc1c(OCCCN2CCOCC2)ccc2c3n(c(=NC(=O)c4cnc(N)nc4)nc12)CCN3 + CCN1C(C(=O)NC23CCC(C(=O)O)(CC2)CC3)C(c2cccc(Cl)c2F)C2(C(=O)Nc3cc(Cl)ccc32)C12CCCCC2
[1]
  IC50: < 3.16 nM
[2]
  IC50: < 3.16 nM
[3]
  IC50: < 3.16 nM
[4]
  IC50: < 3.16 nM
[5]
  IC50: < 3.16 nM
[6]
  viability, T/C: 36.4%
[7]
  viability, T/C: 27.2%
[8]
  viability, T/C: 15.1%
[9]
  viability, T/C: 6.81%
[10]
  viability, T/C: 3.01%
[11]
  viability, T/C: 0.78%
[12]
  viability, T/C: 17.8%
[13]
  viability, T/C: 16.1%
[14]
  viability, T/C: 9.67%
[15]
  viability, T/C: 4.3%
[16]
  viability, T/C: 1.95%
[17]
  viability, T/C: 0.74%
[18]
  viability, T/C: 11%
[19]
  viability, T/C: 11%
[20]
  viability, T/C: 6.7%
[21]
  viability, T/C: 3.81%
[22]
  viability, T/C: 1.38%
[23]
  viability, T/C: 0.96%
[24]
  viability, T/C: 10.3%
[25]
  viability, T/C: 9.29%
[26]
  viability, T/C: 5.17%
[27]
  viability, T/C: 2.9%
[28]
  viability, T/C: 1.19%
[29]
  viability, T/C: 0.83%
[30]
  viability, T/C: 10.2%
[31]
  viability, T/C: 8.55%
[32]
  viability, T/C: 7.12%
[33]
  viability, T/C: 3.01%
[34]
  viability, T/C: 3.28%
[35]
  viability, T/C: 1.16%

## CNC(C)C(=O)NC1CN(S(=O)(=O)c2cccc(S(=O)(=O)N3CCC4CCC(C(=O)NC(c5ccccc5)c5ccccc5)N4C(=O)C(NC(=O)C(C)NC)C3)c2)CCC2CCC(C(=O)NC(c3ccccc3)c3ccccc3)N2C1=O (configuration not stated) + CCN1C(C(=O)NC23CCC(C(=O)O)(CC2)CC3)C(c2cccc(Cl)c2F)C2(C(=O)Nc3cc(Cl)ccc32)C12CCCCC2
[1]
  IC50: < 3.16 nM
[2]
  IC50: < 3.16 nM
[3]
  IC50: < 3.16 nM
[4]
  IC50: < 3.16 nM
[5]
  IC50: < 3.16 nM
[6]
  viability, T/C: 30.1%
[7]
  viability, T/C: 27.8%
[8]
  viability, T/C: 23.9%
[9]
  viability, T/C: 18.8%
[10]
  viability, T/C: 19.3%
[11]
  viability, T/C: 17.5%
[12]
  viability, T/C: 16.2%
[13]
  viability, T/C: 19.3%
[14]
  viability, T/C: 16.2%
[15]
  viability, T/C: 16.8%
[16]
  viability, T/C: 13.7%
[17]
  viability, T/C: 16.5%
[18]
  viability, T/C: 13.8%
[19]
  viability, T/C: 11%
[20]
  viability, T/C: 14.3%
[21]
  viability, T/C: 12.4%
[22]
  viability, T/C: 8.81%
[23]
  viability, T/C: 10.8%
[24]
  viability, T/C: 10.8%
[25]
  viability, T/C: 10%
[26]
  viability, T/C: 10.5%
[27]
  viability, T/C: 9.19%
[28]
  viability, T/C: 9.26%
[29]
  viability, T/C: 10.8%
[30]
  viability, T/C: 10.8%
[31]
  viability, T/C: 8.24%
[32]
  viability, T/C: 9.03%
[33]
  viability, T/C: 9.34%
[34]
  viability, T/C: 11.1%
[35]
  viability, T/C: 10.5%

## O=C(c1ccc(F)c(F)c1Nc1ccc(I)cc1F)N1CC(O)([C@@H]2CCCCN2)C1
Compound 0.00316 µM
  viability, T/C: 91.5% and 92.7% and 97.3%
Compound 0.01 µM
  viability, T/C: 76.6% and 84.3% and 100%
Compound 0.0316 µM
  viability, T/C: 91.3% and 70.7% and 83.2%
Compound 0.1 µM
  viability, T/C: 77.7% and 78.5% and 78%
Compound 0.316 µM
  viability, T/C: 85% and 95.7% and 75.4%
Compound 1 µM
  viability, T/C: 20.7% and 36.6% and 40.9%
Curve of compound
  IC50: 589 nM and 729 nM and 730 nM

## Cn1ncnc1[C@H]1c2n[nH]c(=O)c3cc(F)cc(c23)N[C@@H]1c1ccc(F)cc1 + Cc1c(S(C)(=O)=O)c(-c2cc(F)cc(N3CCN(c4ccc(NS(=O)(=O)c5ccc(NC(CCN6CCC(C(=O)OCCCP(=O)(O)O)CC6)CSc6ccccc6)c(S(=O)(=O)C(F)(F)F)c5)cc4)CC3)c2)c(-c2ccc(Cl)cc2)n1C(C)C
Curve of first compound, second compound 0.1 µM
  IC50: < 0.316 nM
Curve of first compound, second compound 0.316 µM
  IC50: < 0.316 nM
Curve of first compound, second compound 1 µM
  IC50: < 0.316 nM
Curve of first compound, second compound 3.16 µM
  IC50: < 0.316 nM
Curve of first compound, second compound 10 µM
  IC50: < 0.316 nM
Second compound 0.1 µM, first compound 0.000316 µM
  viability, T/C: 17.4%
Second compound 0.1 µM, first compound 0.001 µM
  viability, T/C: 14.9%
Second compound 0.1 µM, first compound 0.00316 µM
  viability, T/C: 17%
Second compound 0.1 µM, first compound 0.01 µM
  viability, T/C: 15.3%
Second compound 0.1 µM, first compound 0.0316 µM
  viability, T/C: 13.6%
Second compound 0.1 µM, first compound 0.1 µM
  viability, T/C: 15.4%
Second compound 0.316 µM, first compound 0.000316 µM
  viability, T/C: 10.9%
Second compound 0.316 µM, first compound 0.001 µM
  viability, T/C: 11.7%
Second compound 0.316 µM, first compound 0.00316 µM
  viability, T/C: 10.6%
Second compound 0.316 µM, first compound 0.01 µM
  viability, T/C: 11.8%
Second compound 0.316 µM, first compound 0.0316 µM
  viability, T/C: 11.4%
Second compound 0.316 µM, first compound 0.1 µM
  viability, T/C: 12.6%
Second compound 1 µM, first compound 0.000316 µM
  viability, T/C: 10.5%
Second compound 1 µM, first compound 0.001 µM
  viability, T/C: 9.96%
Second compound 1 µM, first compound 0.00316 µM
  viability, T/C: 7.96%
Second compound 1 µM, first compound 0.01 µM
  viability, T/C: 6.9%
Second compound 1 µM, first compound 0.0316 µM
  viability, T/C: 8.38%
Second compound 1 µM, first compound 0.1 µM
  viability, T/C: 9.11%
Second compound 3.16 µM, first compound 0.000316 µM
  viability, T/C: 5.76%
Second compound 3.16 µM, first compound 0.001 µM
  viability, T/C: 7.46%
Second compound 3.16 µM, first compound 0.00316 µM
  viability, T/C: 5.55%
Second compound 3.16 µM, first compound 0.01 µM
  viability, T/C: 6.19%
Second compound 3.16 µM, first compound 0.0316 µM
  viability, T/C: 6.82%
Second compound 3.16 µM, first compound 0.1 µM
  viability, T/C: 6.64%
Second compound 10 µM, first compound 0.000316 µM
  viability, T/C: 6.76%
Second compound 10 µM, first compound 0.001 µM
  viability, T/C: 6.12%
Second compound 10 µM, first compound 0.00316 µM
  viability, T/C: 6.36%
Second compound 10 µM, first compound 0.01 µM
  viability, T/C: 5.83%
Second compound 10 µM, first compound 0.0316 µM
  viability, T/C: 6.8%
Second compound 10 µM, first compound 0.1 µM
  viability, T/C: 9.69%
